Common to all, as to assay type: cell-based
For assay [1], the target named is T1, human P2X3 receptor (Homo sapiens, UniProt P56373).
T1 sequence (P56373 1-397): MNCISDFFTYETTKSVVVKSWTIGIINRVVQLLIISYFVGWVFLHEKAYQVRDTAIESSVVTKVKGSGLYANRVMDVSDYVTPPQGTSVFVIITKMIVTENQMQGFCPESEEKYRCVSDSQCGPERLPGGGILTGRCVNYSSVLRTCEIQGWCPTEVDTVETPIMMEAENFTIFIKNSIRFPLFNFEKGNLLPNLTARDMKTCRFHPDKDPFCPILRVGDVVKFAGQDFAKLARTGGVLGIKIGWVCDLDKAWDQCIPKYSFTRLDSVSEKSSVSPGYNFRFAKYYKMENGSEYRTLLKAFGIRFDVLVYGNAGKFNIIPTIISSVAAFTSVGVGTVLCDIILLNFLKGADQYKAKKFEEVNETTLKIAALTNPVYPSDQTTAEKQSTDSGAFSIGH
Kind of assay: Intracellular calcium measurement to assess antagonist activity at human P2X3 receptors (hP2X3 CHO), photina luminescence. Also noted: expressed in transfected cells; host or cells: Chinese hamster ovary (CHO) cells. The settings on record: column 2), CHO cells, agonist α,β-methylene-ATP at EC50. In outline:
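Antagonism read as lowered photina luminescence after agonist stimulation in recombinant hP2X3/photina CHO cells. Cells seeded one day earlier (30 °C) and reconstituted with 5 μg/ml coelenterazine in 2 mM Ca-tyrode buffer for 3 h at 37 °C before measurement.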
(In general: A change in cytosolic calcium serves as a functional read-out for many receptors and channels.)

Assay [2] concerns the target T2, human P2X2/3 receptors (Homo sapiens, UniProt P56373+Q9UBL9).
T2 construct: expressed in transfected cells; host or cells: human astrocytoma 1321N1 (1312N1 [sic])
T2 sequence (P56373 1-397): T1 sequence (P56373 1-397)
T2 sequence (Q9UBL9 1-471): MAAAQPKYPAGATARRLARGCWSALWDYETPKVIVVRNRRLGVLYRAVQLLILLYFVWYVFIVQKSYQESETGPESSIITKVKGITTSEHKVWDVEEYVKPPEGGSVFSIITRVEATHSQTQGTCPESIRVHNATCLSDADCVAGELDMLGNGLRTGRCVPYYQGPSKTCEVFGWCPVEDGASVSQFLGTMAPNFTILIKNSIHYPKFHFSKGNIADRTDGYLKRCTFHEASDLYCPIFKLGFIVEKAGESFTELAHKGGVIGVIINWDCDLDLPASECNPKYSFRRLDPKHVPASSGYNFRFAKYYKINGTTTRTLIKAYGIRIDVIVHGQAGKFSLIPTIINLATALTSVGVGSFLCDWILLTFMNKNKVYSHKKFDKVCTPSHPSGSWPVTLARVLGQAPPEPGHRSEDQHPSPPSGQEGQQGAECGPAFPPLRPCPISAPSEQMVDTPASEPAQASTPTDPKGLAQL
Description: Intracellular calcium measurement, antagonist activity at human P2X2/3 receptors (hP2X23 1321N1), Fluo8. Particulars: for IC50: column 4); 1321N1 cells, human P2X2/3, Fluo8, agonist ATP at EC50; read-out: 4) hP2X2/3 IC50 [nM] (1321N1); for hP2X23/hP2X3* Selectivity (1321N1): ratio of column 4) hP2X2/3 to column 3) hP2X3, 1321N1. In a few lines: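 Antagonism was assessed by decrease of the Fluo8 calcium signal after ATP challenge, with ATP dosed at the EC50 of whichever receptor was tested. Stable 1321N1 astrocytoma lines expressed either human P2X3 or both P2X2 and P2X3, and were dye-loaded 60 min before a 10 min compound incubation.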

Assay [3] concerns the target T1, human P2X3 receptor. Description: Intracellular calcium measurement, antagonist activity at human P2X3 receptors (hP2X3 1321N1), Fluo8. Also noted: expressed in transfected cells; host or cells: human astrocytoma 1321N1 (1312N1 [sic]). The settings on record: column 3); 1321N1 cells, human P2X3, Fluo8, agonist ATP at EC50. On the procedure:
3) And 4) Intracellular Calcium Measurement to Compare Antagonist Activity at Human P2X3 Receptors (hP2X3 1321N1) and at Human P2X2/3 Receptors (hP2X23 1321N1)
The comparison of antagonistic activity at the P2X3 versus the P2X2/3 receptor of the compounds of the invention were performed by use of recombinant cell lines. These cell lines derived originally from the human astrocytoma cell line […] (Macintyre E H, Pontén J, Vatter A E. Acta Pathol Microbiol Scand A. 1972; 80(2):267-83). The cell lines are stably transfected with the human P2X3 receptor forming homotrimeric P2X3 receptors or are co-transfected with P2X2 and P2X3 forming heterotrimeric P2X2/3 receptors. Stimulation of the receptors with the agonist ATP leads to a conformational change of the receptors and influx of extracellular calcium ions through the open ion channel. The cytoplasmatic calcium transient is detected via the calcium sensitive dye Fluo8. The strength of Fluo8 fluorescence signal corresponds to the level of receptor activation. An inhibitor would decrease the signal depending on its potency and concentration. Fluorescence was measured by use of a suitable fluorescence reader.
On the day before the assay, the cells were plated in culture medium (DMEM high glucose, 10% FCS, 1% MEM non-essential amino acids, 4 mM Glutamax) in 384-well poly-D-lysine coated microtiter plates and kept in a cell incubator (96% humidity, 5% v/v CO2, 37° C.). On the day of the assay medium was exchanged by Fluo8 containing buffer and incubated for 60 minutes. Test compounds were added at various concentrations and plates were incubated for 10 minutes. In the fluorescence reader a 3 seconds baseline measurement was performed and the agonist ATP was applied at EC50 concentration of the respective receptor during constant fluorescence measurement for 120 seconds.

Where only a bound is given, the exact number is not on record here.

`CCc1cc2n(CC(=O)Nc3ccc(C)cn3)c3c(c(=O)n2n1)CN(CC1CCOC1)C3=O` (stereo not drawn) [Example 61]: the IC50 in assay [1] was 695 nM; in assay [2] it was over 23000 nM; in assay [3], 1930 nM. The “hP2X23/hP2X3* Selectivity (1321N1)” value in assay [2] is over 12.
With `CCc1cc2n(CC(=O)Nc3ccc(Cl)cn3)c3c(c(=O)n2n1)CN(CC1CCCO1)C3=O` (stereo not drawn) [Example 62], the IC50 in assay [1] is 55 nM; in assay [2], 5150 nM; in assay [3], 240 nM. The “hP2X23/hP2X3* Selectivity (1321N1)” value in assay [2] was 21.
As for `CCc1cc2n(CC(=O)Nc3ccc(C)cn3)c3c(c(=O)n2n1)CN(CC1CCCO1)C3=O` (stereo not drawn) [Example 63], the figures for the IC50 in assay [1], in assay [2] and in assay [3] were 355 nM, 7400 nM and 370 nM, respectively. In assay [2], the “hP2X23/hP2X3* Selectivity (1321N1)” value amounted to 20.
With `CCc1cc2n(CC(=O)Nc3ccccn3)c3c(c(=O)n2n1)CN(C(C)C)C3=O` [Example 64], the IC50 was 430 nM in assay [1], over 32000 nM in assay [2] and 433 nM in assay [3]. Further, the “hP2X23/hP2X3* Selectivity (1321N1)” value in assay [2] is over 74.
The like results for `CCc1cc2n(CC(=O)Nc3ccc(C)cn3)c3c(c(=O)n2n1)CN(C(C)C)C3=O` [Example 65] were, in that order, 200 nM, 10500 nM, 207 nM and 51.
For `CCc1cc2n(CC(=O)Nc3ccc(Cl)cn3)c3c(c(=O)n2n1)CN(C(C)C)C3=O` [Example 66] the same measures were 81 nM, 5450 nM, 56 nM and 98.
For the molecule `CCc1cc2n(CC(=O)Nc3ccc(Br)cn3)c3c(c(=O)n2n1)CN(C(C)C)C3=O` [Example 67], the IC50 came to 185 nM in assay [1], 6350 nM in assay [2] and 217 nM in assay [3]. In addition, in assay [2], the “hP2X23/hP2X3* Selectivity (1321N1)” value turned out to be 29.
On to `CCc1cc2n(CC(=O)Nc3ccc(F)cn3)c3c(c(=O)n2n1)CN(CCNC(=O)OC(C)(C)C)C3=O` [Example 68, tert-butyl {2-[2-ethyl-4-{2-[(5-fluoropyridin-2-yl)amino]-2-oxoethyl}-5,8-dioxo-5,8-dihydro-4H-pyrazolo[1,5-a]pyrrolo[3,4-d]pyrimidin-6(7H)-yl]ethyl}carbamate], for which the IC50 in assay [1] came out at 17 nM; in assay [2], 1660 nM; in assay [3] it was 10 nM. For the same molecule, the “hP2X23/hP2X3* Selectivity (1321N1)” value in assay [2] came to 160.
In the case of `Cc1ccc(-c2cc3n(CC(=O)Nc4ccc(F)cn4)c4c(c(=O)n3n2)CN(C(C)C)C4=O)nc1` [Example 69], the IC50 in assay [1] stood at 8 nM; in assay [2], 1700 nM; in assay [3] it was 4 nM. Also, the “hP2X23/hP2X3* Selectivity (1321N1)” value in assay [2] came to 447.
For the molecule `CCOC(=O)c1cc2n(CC(=O)Nc3ccc(F)cn3)c3c(c(=O)n2n1)CN(C(C)C)C3=O` [Example 70, ethyl 4-{2-[(5-fluoropyridin-2-yl)amino]-2-oxoethyl}-5,8-dioxo-6-(propan-2-yl)-5,6,7,8-tetrahydro-4H-pyrazolo[1,5-a]pyrrolo[3,4-d]pyrimidine-2-carboxylate], the IC50 in assay [1] stood at 16 nM; in assay [2] it was 1800 nM; in assay [3], 36 nM. For the same molecule, the “hP2X23/hP2X3* Selectivity (1321N1)” value in assay [2] stood at 51.
For the molecule `CC(C)N1Cc2c(n(CC(=O)Nc3ccc(F)cn3)c3cc(CO)nn3c2=O)C1=O` [Example 72], the IC50 was 120 nM in assay [1], over 32000 nM in assay [2] and 235 nM in assay [3]. Besides, in assay [2], the “hP2X23/hP2X3* Selectivity (1321N1)” value is on record as over 136.
The like results for `CCc1cc2n(CC(=O)Nc3ccc(F)cn3)c3c(c(=O)n2n1)CN(C[C@H]1CCCO1)C3=O` [Example 73, 2-{2-ethyl-5,8-dioxo-6-[(2R)-tetrahydrofuran-2-ylmethyl]-5,6,7,8-tetrahydro-4H-pyrazolo[1,5-a]pyrrolo[3,4-d]pyrimidin-4-yl}-N-(5-fluoropyridin-2-yl)acetamide] were, in that order, 122 nM, 9500 nM, 104 nM and 91.
`CCc1cc2n(CC(=O)Nc3ccc(F)cn3)c3c(c(=O)n2n1)CN(CC1CCOC1)C3=O` (stereo not drawn) [Example 74]: the IC50 is 570 nM in assay [1], over 32000 nM in assay [2] and 437 nM in assay [3]. In addition, the “hP2X23/hP2X3* Selectivity (1321N1)” value in assay [2] is reported as over 73.
In the case of `CC(C)N1Cc2c(n(CC(=O)Nc3ccc(F)cn3)c3cc(Br)nn3c2=O)C1=O` [Example 75, 2-[2-bromo-5,8-dioxo-6-(propan-2-yl)-5,6,7,8-tetrahydro-4H-pyrazolo[1,5-a]pyrrolo[3,4-d]pyrimidin-4-yl]-N-(5-fluoropyridin-2-yl)acetamide], the IC50 in assay [1] was 29 nM; in assay [2], 4400 nM; in assay [3], 89 nM. The “hP2X23/hP2X3* Selectivity (1321N1)” value in assay [2] came to 50.
In the case of `CCc1cc2n(CC(=O)Nc3ccc(F)cn3)c3c(c(=O)n2n1)CN(C1CCN(C(=O)OC(C)(C)C)CC1)C3=O` [Example 76], the results for the IC50 in assay [1], in assay [2] and in assay [3] were 470 nM, over 21500 nM and 1670 nM, respectively. For the same molecule, in assay [2], the “hP2X23/hP2X3* Selectivity (1321N1)” value is over 13.
For `CCc1cc2n(CC(=O)Nc3ccc(F)cn3)c3c(c(=O)n2n1)CN(C1CCN(C(=O)OC(C)(C)C)C1)C3=O` (stereo not drawn) [Example 78] the same measures were 21 nM, 6100 nM, 62 nM and 98.
Turning to `CC(C)N1Cc2c(n(CC(=O)Nc3ccc(F)cn3)c3cc(C(=O)NC4CC4)nn3c2=O)C1=O` [Example 79], the IC50 in assay [1] was 94 nM; in assay [2], 4800 nM; in assay [3] it was 61 nM. Also, the “hP2X23/hP2X3* Selectivity (1321N1)” value in assay [2] came to 79.
The like results for `CCc1cc2n(CC(=O)Nc3ccc(F)cn3)c3c(c(=O)n2n1)CN(CC1CCN(C(=O)OC(C)(C)C)C1)C3=O` (stereo not drawn) [Example 80] were, in that order, 32 nM, 1950 nM, 63 nM and 31.
As to `CCc1cc2n(CC(=O)Nc3ccc(F)cn3)c3c(c(=O)n2n1)CN(CC1CCCN1C(=O)OC(C)(C)C)C3=O` (stereo not drawn) [Example 81], the figures for the IC50 in assay [1], in assay [2] and in assay [3] were 103 nM, 2600 nM and 42 nM, respectively. In addition, the “hP2X23/hP2X3* Selectivity (1321N1)” value in assay [2] is reported as 61.
For `CC(C)Cc1cc2n(CC(=O)Nc3ccc(F)cn3)c3c(c(=O)n2n1)CN(C(C)C)C3=O` [Example 82] the same measures were 6 nM, 1870 nM, 8 nM and 239.
Take `CCc1cc2n(CC(=O)Nc3ccc(F)cn3)c3c(c(=O)n2n1)CN(CC1CCOCC1)C3=O` [Example 83]: the results for the IC50 in assay [1], in assay [2] and in assay [3] were 370 nM, over 32000 nM and 665 nM, respectively. In assay [2], the “hP2X23/hP2X3* Selectivity (1321N1)” value is over 48.

(Values after patent publication US11319324B2, “Pyrazolo-pyrrolo-pyrimidine-dione derivatives as P2X3 inhibitors” (Bayer Aktiengesellschaft, priority 2017, dated 2022).)
